Results as given in patent US10767179B2, “MicroRNA composition for the treatment of neuroblastoma” (THE BOARD OF REGENTS OF THE UNIVERSITY OF TEXAS SYSTEM, priority 2014, dated 2020).

What was measured:
BE(2)-C cells [1] = experiment: Cell Viability Assay (CellTiter-Glo); assay type: cell-based; conditions: transfected with mimic for 4 days
Method: Cell Viability Assay. Cells were plated in 96-well format and treated as specified. After culturing for 120 h, cell viability was determined using the CellTiter-Glo Luminescent Cell Viability Assay (Promega).

[2] = tested on: additional neuroblastoma cell lines with different genetic backgrounds; experiment: Neurite outgrowth in multiple neuroblastoma cell lines; assay type: cell-based; conditions: 25 nM miRNA mimic, 5 days, among the top 5 miRNAs
Method: (§1) FIG. 3A-3G. Characterization of the effect of the top 5 neurite-inducing miRNA mimics on cell differentiation and growth in multiple neuroblastoma cell lines. (A-B) Effects of the identified top 5 miRNA mimics on neurite outgrowth. BE(2)-C cells were transfected with 25 nM miRNA mimics or control for 4 days, and relative neurite lengths were quantified as above. Shown are representative cell images analyzed to define neurite and cell body areas (A) and neurite length quantifications (B). (C) Effects of the 5 miRNA mimics on expression of differentiation markers. BE(2)-C cells were transfected with 25 nM of the indicated miRNA mimics or control, and proteins levels were examined after 4 days. (D) Effects of the 5 miRNA mimics on cell proliferation rate. (E) Effect of the 5 miRNAs on neurite outgrowth in multiple cell lines. Cells were transfected with 25 nM miRNA mimics or control, and neurite lengths were quantified as above after 5 days. (F-G) Effects of miR-506-3p (F) and miR-124-3p (G) mimics on expression of differentiation markers in multiple cell lines. *, p<0.05; **, p<0.01; ***, p<0.001; **** , p<0.0001.
Detection and Quantification of Neurite Outgrowth. Cells were plated and treated in 96-well plates. […] The neurite lengths associated with each treatment were calculated using the neurite definition defined for each specific cell line using the NeuroTrack system (Essen BioScience).

differentiation markers = experiment: Western blots of differentiation markers in multiple neuroblastoma cell lines; assay type: cell-based; conditions: miRNA mimic
Method: as §1
Western Blots. […] Protein concentration was determined using the Pierce BCA assay (Thermo Fisher Scientific). […] Bound antibodies were detected with secondary antibodies conjugated with horseradish peroxidase (HRP) visualized by enhanced chemiluminescent (ECL) substrate (Pierce).

3′UTR of STAT3 = experiment: Luciferase Reporter Assay, STAT3 3'UTR; assay type: cell-based, human; conditions: BE(2)-C cells, 25 nM mimic, 72 h
Description: Luciferase Reporter Assay. The segments of the wildtype 3′ UTRs for CDK4 and STAT3 containing the predicted target sites of miR-506-3p and miR-124-3p were cloned from human genomic DNA. Mutant constructs were generated with the seed target site (GUGCCUU (SEQ ID NO:4)) replaced by CACGGUU (SEQ ID NO:5). The 3′ UTRs were cloned downstream of the firefly luciferase coding sequences into the pmirGLO dual-luciferase reporter (Promega), a vector containing both firefly and Renilla luciferase cDNAs under the control of separate promoter/terminator systems. The firefly luciferase was used as the primary reporter for miRNA regulation of the 3′ UTR. The Renilla luciferase is an internal control for normalization. BE(2)-C cells were co-transfected with luciferase reporters (0.8 ng/μl) and miRNA mimics or control oligonucleotide (oligo) (25 nM). Luciferase activities were measured after 72 h using the Dual-Glo Luciferase Assay System (Promega). Firefly luciferase activity was normalized to Renilla luciferase activity to evaluate the effect of the miRNAs.

SHC3 = experiment: mRNA expression profiling (Illumina microarray); assay type: cell-based; conditions: change of expression induced by miRNA overexpression
Method: (§2) Mrna And Mirna Expression. Total RNA was isolated as previously described (Du et al., Mol Cancer Res, 2009, 7(8):1234-43). mRNA expression profiling was done using the Illumina mRNA WG-6 v3 microarray platform. miRNA expression was measured by qRT-PCR using TaqMan microRNA Assays (Life Technologies) with average expression of RNU44 RNA, RNU19 RNA, GAPDH mRNA and 18s rRNA used as controls for normalizing RNA loading.

CDK4 = experiment: mRNA expression profiling (Illumina microarray); assay type: cell-based; conditions: change of expression induced by miRNA overexpression
Method: as §2

RARG = experiment: mRNA expression profiling (Illumina microarray); assay type: cell-based; conditions: change of expression induced by miRNA overexpression
Method: as §2

RHOQ = experiment: mRNA expression profiling (Illumina microarray); assay type: cell-based; conditions: change of expression induced by miRNA overexpression
Method: as §2

THRB = experiment: mRNA expression profiling (Illumina microarray); assay type: cell-based; conditions: change of expression induced by miRNA overexpression
Method: as §2

STAT3 = experiment: mRNA expression profiling (Illumina microarray); assay type: cell-based; conditions: change of expression induced by miRNA overexpression
Method: as §2

CEBPA = experiment: mRNA expression profiling (Illumina microarray); assay type: cell-based; conditions: change of expression induced by miRNA overexpression
Method: as §2

AHR = experiment: mRNA expression profiling (Illumina microarray); assay type: cell-based; conditions: change of expression induced by miRNA overexpression
Method: as §2

BDNF = experiment: mRNA expression profiling (Illumina microarray); assay type: cell-based; conditions: change of expression induced by miRNA overexpression
Method: as §2

PML = experiment: mRNA expression profiling (Illumina microarray); assay type: cell-based; conditions: change of expression induced by miRNA overexpression
Method: as §2

BE(2)-C cells [3] = experiment: High-content screen: detection and quantification of neurite outgrowth; assay type: cell-based; conditions: 4 days, dose-dependent, vs 0 nM

Substance: hsa-miR-506-3p: miRNA mimic (Dharmacon), mature sequence UAAGGCACCCUUCUGAGUAGA (SEQ ID NO: 1) (UAAGGCACCCUUCUGAGUAGA(1); as printed in the source, key not given here)
- Cell viability when reaching plateau (BE(2)-C cells [1]): 6.3±0.3%
- Effect on neurite growth in multiple cell lines [2]: most potent effect on neurite growth
- Expression of differentiation markers in all the tested cell lines (differentiation markers): dramatically induce expression of differentiation markers
- Target site in the 3′UTR of STAT3 by luciferase reporter (3′UTR of STAT3): validated
- Gene expression SHC3 (SHC3): 1.08
- Gene expression CDK4 (CDK4): 0.39
- Gene expression RARG (RARG): 1.02
- Gene expression RHOQ (RHOQ): 1.07
- Gene expression THRB (THRB): 1.04
- Gene expression STAT3 (STAT3): 0.75
- Gene expression CEBPA (CEBPA): 0.88
- Gene expression AHR (AHR): 1.19
- Gene expression BDNF (BDNF): 1.04
- Gene expression PML (PML): 1.01
- Concentration at which induction of neurite outgrowth is significant (BE(2)-C cells [3]): 0.1 nM
